# “And” between values parts separate entries of the source, which are not always exact repeats. Identical values can stand only once. Marks after values point to notes of the source that are not given here.
# Columns and labels:
# [1] = Isolated perfused rat liver, single-pass perfusion with MRZ-containing Krebs-Henselit buffer, control vs MDMA-pretreated rats; perfusate analysed by HPLC; conditions: for Mean outlet perfusate concentration at four latest samples / Metabolic ratio (metabolite concentration divided by MRZ concentration) at four latest sampling time intervals: mean ± SD; for CLh (hepatic clearance) / CLint (intrinsic clearance): ±SD; for AUC(0-t) at 1 μg/ml: rat, isolated perfused rat liver (single-pass); for Decrease in metabolite concentration, treatment vs control: four latest samples; for Decrease in metabolic ratio, treatment vs control: four latest sampling time intervals
# CYP2D6 [2] = assay: Effect of MDMA on CYP2D6-mediated MRZ metabolism (8-OH formation) in isolated perfused rat liver; conditions: MDMA 3 mg/kg IP 1 hour before MRZ perfusion; inferred from 8-OH formation
# CYP2D6 [3] = test system: CYP2D6; parameters: method as in PMID 16714321; conditions: irreversible inhibition of CYP2D6; cited from earlier work
# CYP3A4 = assay: Effect of MDMA on CYP3A4-mediated MRZ metabolism (NDES formation) in isolated perfused rat liver; conditions: MDMA 3 mg/kg IP 1 hour before MRZ perfusion; inferred from NDES formation
# [4] = MDMA 3 mg/kg IP 1 hour before MRZ
# [5] = control group (n = 6), MRZ inlet 1 μg/ml
# [6] = treatment group (MDMA 3 mg/kg IP 1 hour before), individual rats 1-6
# [7] = treatment group (n = 6), MDMA 3 mg/kg IP 1 hour before MRZ 1 μg/ml
# [8] = treatment group (n = 6), MDMA 3 mg/kg IP 1 hour before
# [9] = control group, individual rats 1-6, metabolite formed from MRZ 1 μg/ml
# [10] = treatment group (MDMA 3 mg/kg IP 1 hour before), mean (n = 6)
smiles,measurement,setting,value
"CN1CCN2c3ncccc3Cc3ccccc3C2C1 (stereo not drawn) [MRZ, Mirtazapine, reference compound]","Decrease in CLint, treatment vs control",[1]; [4],60%
same,"Increase in AUC (0–120) of parent drug, treatment vs control",[1]; [4],50%
same,Mean outlet perfusate concentration at four latest samples,[1]; [5],131.9 ± 56.9 ng/mL
same,CLh (hepatic clearance),"[1]; control group (n = 6), CLh=Q×E, Q 8.3 ml/min",7.2 ± 0.5 mL/min and 7.21 ± 0.47 mL/min
same,CLint (intrinsic clearance),"[1]; control group (n = 6), CLint=E×Q/F",63.4 ± 25.8 mL/min and 63.4 ± 25.81 mL/min
same,AUC (0–120) MRZ Control,"[1]; control group, individual rats 1-6","9928.7 ng.min/ml and 16,443.6 ng.min/ml and 10,611.4 ng.min/ml and 13,295.1 ng.min/ml and 19,497.1 ng.min/ml"
same,AUC(0-t) at 1 μg/ml,"[1]; AUC (0–120) MRZ Control, MEAN, control group, mean (n = 6)",237 ng·h/mL
same,AUC(0-t) at 1 μg/ml,"[1]; AUC (0–120) MRZ Control, control group, individual rats 1-6",259 ng·h/mL
same,AUC(0-t) at 1 μg/ml,"[1]; ip, 3 mg/kg, AUC (0–120) MRZ Treatment, MEAN, treatment group (MDMA 3 mg/kg IP 1 hour before), mean (n = 6)",358 ng·h/mL
same,AUC(0-t) at 1 μg/ml,"[1]; ip, 3 mg/kg, AUC (0–120) MRZ Treatment, treatment group (MDMA 3 mg/kg IP 1 hour before), individual rats 1-6",401 ng·h/mL
same,AUC (0–120) MRZ Treatment,[1]; [6],"18,031.1 ng.min/ml and 17,675.6 ng.min/ml and 23,553.7 ng.min/ml and 23,063.4 ng.min/ml and 22,680.5 ng.min/ml"
same,Mean outlet perfusate concentration at four latest samples,[1]; [7],236.8 ± 44.7 ng/mL
same,CLh (hepatic clearance),[1]; [8],6.3 ± 0.4 mL/min and 6.33 ± 0.37 mL/min
same,CLint (intrinsic clearance),[1]; [8],27.7 ± 6.3 mL/min and 27.71 ± 6.26 mL/min
"CN1CCN2c3ncc(O)cc3Cc3ccccc3C2C1 (stereo not drawn) [8-OH, 8-hydroxymirtazapine]","Decrease in AUC (0–120) of metabolite, treatment vs control",[1]; [4],70%
same,Mean outlet perfusate concentration at four latest samples,[1]; [5],10.3 ± 3.2 ng/mL
same,Metabolic ratio (metabolite concentration divided by MRZ concentration) at four latest sampling time intervals,[1]; control group (n = 6),0.1 ± 0.05
same,AUC (0–120) 8-OH Control,[1]; [9],2124.9 ng·min/mL and 1398.9 ng·min/mL and 1960.2 ng·min/mL and 1674.1 ng·min/mL and 610.9 ng·min/mL and 588.2 ng·min/mL
same,"AUC (0–120) 8-OH Control, MEAN","[1]; control group, mean (n = 6)",1392.9 ng·min/mL
same,"Decrease in metabolite concentration, treatment vs control",[1]; [4],50%
same,"Decrease in metabolic ratio, treatment vs control",[1]; [4],83%
same,AUC (0–120) 8-OH Treatment,[1]; [6],287.5 ng·min/mL and 398.6 ng·min/mL and 449.2 ng·min/mL and 415.4 ng·min/mL and 371.3 ng·min/mL and 920.5 ng·min/mL
same,"AUC (0–120) 8-OH Treatment, MEAN",[1]; [10],473.7* ng.min/ml
same,Mean outlet perfusate concentration at four latest samples,[1]; [7],4.7 ± 2.9 ng/mL
same,Metabolic ratio (metabolite concentration divided by MRZ concentration) at four latest sampling time intervals,[1]; [8],0.02 ± 0.008
"c1ccc2c(c1)Cc1cccnc1N1CCNCC21 (stereo not drawn) [NDES, N-desmethylmirtazapine]","Decrease in AUC (0–120) of metabolite, treatment vs control",[1]; [4],60%
same,Mean outlet perfusate concentration at four latest samples,[1]; [5],188.6 ± 63.44 ng/mL
same,Metabolic ratio (metabolite concentration divided by MRZ concentration) at four latest sampling time intervals,[1]; control group (n = 6),1.7 ± 0.8
same,AUC (0–120) NDES Control,[1]; [9],"28,525.2 ng.min/ml and 22,505.4 ng.min/ml and 15,171.6 ng.min/ml and 18,839.8 ng.min/ml and 11,195.2 ng.min/ml and 12,075.7 ng.min/ml"
same,"AUC (0–120) NDES Control, MEAN","[1]; control group, mean (n = 6)","18,052.1 ng.min/ml"
same,"Decrease in metabolite concentration, treatment vs control",[1]; [4],50%
same,"Decrease in metabolic ratio, treatment vs control",[1]; [4],79%
same,AUC (0–120) NDES Treatment,[1]; [6],"593.7 ng.min/ml and 12,111.8 ng.min/ml and 15,346.2 ng.min/ml and 5860.1 ng.min/ml and 10,613.3 ng.min/ml and 3605.2 ng.min/ml"
same,"AUC (0–120) NDES Treatment, MEAN",[1]; [10],8021.7* ng.min/ml
same,Mean outlet perfusate concentration at four latest samples,[1]; [7],98.5 ± 64.3 ng/mL
same,Metabolic ratio (metabolite concentration divided by MRZ concentration) at four latest sampling time intervals,[1]; [8],0.45 ± 0.3
"CNC(C)Cc1ccc2c(c1)OCO2 (stereo not drawn) [MDMA, 3,4-methylenedioxymethamphetamine]",Effect on CYP2D6 hepatic isoenzyme,CYP2D6 [2],inhibitory effects
same,Time after MDMA administration at which mechanism-based inhibition of most CYP2D6 isoenzymes is demonstrated,CYP2D6 [3],≤ 1 h
same,Effect on CYP3A4 hepatic isoenzyme,CYP3A4,inhibitory effects
